Measured values taken from patent publication US8242174B2 (priority 2007, dated 2012).
Structures can show the parent of a compound that is named as a salt.

Molecular target: Lethal factor protease (Bacillus anthracis, UniProt P15917)
Experiment: biochemical

Lethal factor protease, sequence (P15917 34-809 limits assumed): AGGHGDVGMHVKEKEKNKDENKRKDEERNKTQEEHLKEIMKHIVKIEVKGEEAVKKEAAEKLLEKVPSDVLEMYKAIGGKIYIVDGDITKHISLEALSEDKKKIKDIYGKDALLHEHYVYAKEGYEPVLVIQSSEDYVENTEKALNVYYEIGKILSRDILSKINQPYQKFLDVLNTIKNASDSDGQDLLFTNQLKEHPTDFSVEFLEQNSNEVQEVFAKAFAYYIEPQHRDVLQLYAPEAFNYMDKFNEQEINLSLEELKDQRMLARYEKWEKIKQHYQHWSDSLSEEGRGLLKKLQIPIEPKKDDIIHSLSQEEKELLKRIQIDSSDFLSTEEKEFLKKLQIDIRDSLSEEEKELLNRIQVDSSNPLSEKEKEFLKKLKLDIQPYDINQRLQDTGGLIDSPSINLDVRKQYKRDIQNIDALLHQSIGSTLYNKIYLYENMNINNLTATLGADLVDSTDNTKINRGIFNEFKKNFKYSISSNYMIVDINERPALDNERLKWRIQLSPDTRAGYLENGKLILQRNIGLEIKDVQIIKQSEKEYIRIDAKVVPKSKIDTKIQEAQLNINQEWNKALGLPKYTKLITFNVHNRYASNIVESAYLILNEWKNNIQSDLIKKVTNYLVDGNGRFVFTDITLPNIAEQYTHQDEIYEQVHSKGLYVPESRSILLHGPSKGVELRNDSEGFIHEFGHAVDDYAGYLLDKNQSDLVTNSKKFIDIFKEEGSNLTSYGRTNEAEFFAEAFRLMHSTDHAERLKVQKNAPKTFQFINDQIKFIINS

Structure (SMILES) | Ki
Cc1cc(NCC(=O)NO)ccc1F [Compound 166986, 2-(4-Fluoro-3-methyl-phenylamino)-N-hydroxy-acetamide] | 7.6 µM
CCCCC(Nc1ccc(F)c(C)c1)C(=O)NO (stereo not shown) [Compound 167162, 2-(4-Fluoro-3-methyl-phenylamino)-hexanoic acid hydroxyamide] | 2 µM
CCCCC(Nc1cccc(C)c1)C(=O)NO (stereo not shown) [Compound 167170, 2-m-Tolylamino-hexanoic acid hydroxyamide] | 34.1 µM
CCCCC(Nc1cccc(C(C)C)c1)C(=O)NO (stereo not shown) [Compound 167183, 2-(3-Isopropyl-phenylamino)-hexanoic acid hydroxyamide] | > 300 µM
CCCCC(Nc1cccc(CC)c1)C(=O)NO (stereo not shown) [Compound 167201, 2-(3-Ethyl-phenylamino)-hexanoic acid hydroxyamide] | 89.8 µM
CCCCC(Nc1cccc(-c2ccccc2)c1)C(=O)NO (stereo not shown) [Compound 167202, 2-(Biphenyl-3-ylamino)-hexanoic acid hydroxyamide] | 236 µM
CCCCC(Nc1ccccc1)C(=O)NO (stereo not shown) [Compound 167210, 2-Phenylamino-hexanoic acid hydroxyamide] | 203 µM
CCCCC(Nc1ccc(F)cc1)C(=O)NO (stereo not shown) [Compound 167211, 2-(4-Fluoro-phenylamino)-hexanoic acid hydroxyamide] | 81 µM
CCCCC(Nc1cc(C)cc(C)c1)C(=O)NO (stereo not shown) [Compound 167226, 2-(3,5-Dimethyl-phenylamino)-hexanoic acid hydroxyamide] | 7.4 µM
Cc1cc(NC(C(=O)NO)c2ccccc2)ccc1F (stereo not shown) [Compound 167228, 2-(4-Fluoro-3-methyl-phenylamino)-N-hydroxy-2-phenyl-acetamide] | 2.8 µM
Cc1cc(NC(Cc2ccc(OC(F)(F)F)cc2)C(=O)NO)ccc1F (stereo not shown) [Compound 167233, 2-(4-Fluoro-3-methyl-phenylamino)-N-hydroxy-3-(4-trifluoromethoxy-phenyl)-propionamide] | 102 µM
Cc1cc(NC(C)C(=O)NO)ccc1F (stereo not shown) [Compound 167235, 2-(4-Fluoro-3-methyl-phenylamino)-N-hydroxy-propionamide] | 1.4 µM
CCCCC(Nc1ccc(C)cc1)C(=O)NO (stereo not shown) [Compound 167255, 2-p-Tolylamino-hexanoic acid hydroxyamide] | 296 µM
CCCCC(Nc1ccc(Cl)cc1)C(=O)NO (stereo not shown) [Compound 167256, 2-(4-Chloro-phenylamino)-hexanoic acid hydroxyamide] | 187 µM
CCCCC(Nc1cccc(Cl)c1)C(=O)NO (stereo not shown) [Compound 167257, 2-(3-Chloro-phenylamino)-hexanoic acid hydroxyamide] | 61.5 µM
Cc1cc(N[C@@H](C(=O)NO)C(C)C)cc(C)c1F [Compound 167264, (R)-2-(4-Fluoro-3,5-dimethyl-phenylamino)-N-hydroxy-3-methyl-butyramide] | 3.1 µM
Cc1cc(N[C@@H](C(=O)NO)C(C)C)ccc1F [Compound 167267, (R)-2-(4-Fluoro-3-methyl-phenylamino)-N-hydroxy-3-methyl-butyramide hydrochloride] | 15.7 µM
Cc1cc(N[C@H](C(=O)NO)C(C)C)ccc1F [Compound 167268, (S)-2-(4-Fluoro-3-methyl-phenylamino)-N-hydroxy-3-methyl-butyramide hydrochloride] | > 300 µM
CCCC[C@@H](Nc1ccc(F)c(C)c1)C(=O)NO [Compound 167273, (R)-2-(4-Fluoro-3-methyl-phenylamino)-hexanoic acid hydroxyamide] | 0.71 µM
CCCC[C@H](Nc1ccc(F)c(C)c1)C(=O)NO [Compound 167274, (S)-2-(4-Fluoro-3-methyl-phenylamino)-hexanoic acid hydroxyamide] | 116 µM
CCCCC(Nc1ccc(OC)cc1)C(=O)NO (stereo not shown) [Compound 167275, 2-(4-Methoxy-phenylamino)-hexanoic acid hydroxyamide] | 88.1 µM
CCCCC(Nc1cccc(OC)c1)C(=O)NO (stereo not shown) [Compound 167276, 2-(3-Methoxy-phenylamino)-hexanoic acid hydroxyamide] | 140 µM
CCCCC(Nc1cccc(F)c1)C(=O)NO (stereo not shown) [Compound 167277, 2-(3-Fluoro-phenylamino)-hexanoic acid hydroxyamide] | 134 µM
CCCCC(Nc1ccccc1F)C(=O)NO (stereo not shown) [Compound 167291, 2-(2-Fluoro-phenylamino)-hexanoic acid hydroxyamide] | > 300 µM
CCCCC(Nc1ccccc1C)C(=O)NO (stereo not shown) [Compound 167292, 2-o-Tolylamino-hexanoic acid hydroxyamide] | 273 µM
CCCCC(Nc1ccccc1OC)C(=O)NO (stereo not shown) [Compound 167293, 2-(2-Methoxy-phenylamino)-hexanoic acid hydroxyamide] | > 300 µM

Structure (SMILES) | Ki
CCCC[C@@H](Nc1cc(C)c(F)c(C)c1)C(=O)NO [Compound 167294, (R)-2-(4-Fluoro-3,5-dimethyl-phenylamino)-hexanoic acid hydroxyamide] | 0.52 µM
CCCC[C@H](Nc1cc(C)c(F)c(C)c1)C(=O)NO [Compound 167295, (S)-2-(4-Fluoro-3,5-dimethyl-phenylamino)-hexanoic acid hydroxyamide] | 106 µM
Cc1cc(N[C@H](C(=O)NO)C(C)C)cc(C)c1F [Compound 167296, (5)-2-(4-Fluoro-3,5-dimethyl-phenylamino)-N-hydroxy-3-methyl-butyramide] | 201 µM
CCCCC(Nc1ccc(F)c(Cl)c1)C(=O)NO (stereo not shown) [Compound 167322, 2-(3-Chloro-4-fluoro-phenylamino)-hexanoic acid hydroxyamide] | 17.1 µM
CCCCC(Nc1ccc(OC)c(C)c1)C(=O)NO (stereo not shown) [Compound 167324, 2-(4-Methoxy-3-methyl-phenylamino)-hexanoic acid hydroxyamide] | 19.3 µM
CCCCC(Nc1cc(C)c(OC)c(C)c1)C(=O)NO (stereo not shown) [Compound 167325, 2-(4-Methoxy-3,5-dimethyl-phenylamino)-hexanoic acid hydroxyamide] | 30.4 µM
Cc1cc(N[C@@H](C)C(=O)NO)ccc1F [Compound 167364, (S)-2-(4-Fluoro-3-methyl-phenylamino)-N-hydroxy-propionamide] | 87 µM
Cc1cc(N[C@H](Cc2ccccc2)C(=O)NO)cc(C)c1F [Compound 167378, (R)-2-(4-Fluoro-3,5-dimethyl-phenylamino)-N-hydroxy-3-phenyl-propionamide] | 7 µM
Cc1cc(N[C@H](COCc2ccccc2)C(=O)NO)cc(C)c1F [Compound 167379, (R)-3-Benzyloxy-2-(4-fluoro-3,5-dimethyl-phenylamino)-N-hydroxy-propionamide] | 1.44 µM
CCC[C@@H](Nc1cc(C)c(F)c(C)c1)C(=O)NO [Compound 167391, (R)-2-(4-Fluoro-3,5-dimethyl-phenylamino)-pentanoic acid hydroxyamide] | 0.5 µM
Cc1cc(N[C@H](C)C(=O)NO)ccc1F [Compound 167392, (R)-2-(4-Fluoro-3-methyl-phenylamino)-N-hydroxy-propionamide] | 0.96 µM
Cc1cc(N[C@H](CC(C)C)C(=O)NO)cc(C)c1F [Compound 167402, (R)-2-(4-Fluoro-3,5-dimethyl-phenylamino)-4-methyl-pentanoic acid hydroxyamide] | 0.67 µM
Cc1cc(N[C@H](CC2CCCCC2)C(=O)NO)cc(C)c1F [Compound 167405, (R)-3-Cyclohexyl-2-(4-fluoro-3,5-dimethyl-phenylamino)-N-hydroxy-propionamide] | 1.48 µM
Cc1cc(N[C@H](CCc2ccccc2)C(=O)NO)cc(C)c1F [Compound 167406, (R)-2-(4-Fluoro-3,5-dimethyl-phenylamino)-N-hydroxy-4-phenyl-butyramide] | 0.51 µM
Cc1cc(N[C@@H](C(=O)NO)C2CCCCC2)cc(C)c1F [Compound 167424, (R)-2-Cyclohexyl-2-(4-fluoro-3,5-dimethyl-phenylamino)-N-hydroxy-acetamide] | 0.79 µM
Cc1cc(N[C@@H](C(=O)NO)c2ccccc2)cc(C)c1F [Compound 167425, (R)-2-(4-Fluoro-3,5-dimethyl-phenylamino)-N-hydroxy-2-phenyl-acetamide] | 0.48 µM
CC[C@@H](Nc1cc(C)c(F)c(C)c1)C(=O)NO [Compound 167450, (R)-2-(4-Fluoro-3,5-dimethyl-phenylamino)-N-hydroxy-butyramide] | 0.67 µM
Cc1cc(NCC(=O)NO)cc(C)c1F [Compound 167452, 2-(4-Fluoro-3,5-dimethyl-phenylamino)-N-hydroxy-acetamide] | 4 µM
CCCCC(Nc1cc(C)c(F)c(C)c1)C(=O)NO (stereo not shown) [Compound 167454, 2-(4-Fluoro-3,5-dimethyl-phenylamino)-hexanoic acid hydroxyamide] | 0.8 µM
CCCCC(Nc1ccc(C)c(F)c1C)C(=O)NO (stereo not shown) [Compound 167455, 2-(3-Fluoro-2,4-dimethyl-phenylamino)-hexanoic acid hydroxyamide] | 88.1 µM
Cc1cc(NC(CCC(F)(F)F)C(=O)NO)cc(C)c1F (stereo not shown) [Compound 167482, 5,5,5-Trifluoro-2-(4-fluoro-3,5-dimethyl-phenylamino)-pentanoic acid hydroxyamide] | 1.1 µM
Cc1cc(NC(CCCC(F)(F)F)C(=O)NO)cc(C)c1F (stereo not shown) [Compound 167483, 6,6,6-Trifluoro-2-(4-fluoro-3,5-dimethyl-phenylamino)-hexanoic acid hydroxyamide] | 1.3 µM
Cc1cc(N[C@H](COC(C)(C)C)C(=O)NO)cc(C)c1F [Compound 167484, (R)-3-tert-Butoxy-2-(4-fluoro-3,5-dimethyl-phenylamino)-N-hydroxy-propionamide] | 0.45 µM
Cc1cc(N[C@H](CO)C(=O)NO)cc(C)c1F [Compound 167485, (R)-2-(4-Fluoro-3,5-dimethyl-phenylamino)-3,N-dihydroxy-propionamide] | 0.59 µM
Cc1cc(NC(C)C(=O)NO)cc(C)c1F (stereo not shown) [Compound 167486, 2-(4-Fluoro-3,5-dimethyl-phenylamino)-N-hydroxy-propionamide] | 0.69 µM
Cc1cc(N[C@H](C)C(=O)NO)cc(C)c1F [Compound 167497, (R)-2-(4-Fluoro-3,5-dimethyl-phenylamino)-N-hydroxy-propionamide] | 0.47 µM
